From US20260216170A1, “TETRAHYDROISOQUINOLINE HETEROBIFUNCTIONAL BCL-XL DEGRADERS” (Treeline Biosciences, Inc., priority 2023, published 2026)

Biological target: T1, Human BCL-XL protein (N-terminal HiBiT tagged BCL-XL expressed in HT1080 cells) (Homo sapiens, UniProt Q07817)
T1 construct: expressed in transfected cells; host or cells: HT-1080 (ATCC CCL-121), stably transduced with lentivirus pLV-UBC-N-HiBiT-BCL-XL-PGK-puro and selected with puromycin
Assay: HiBiT Based Degradation Assay
Assay type: cell-based
Conditions: 24 hours incubation; for DC50: BCL-XL degradation, HT1080 cells expressing N-HiBiT-BCL-XL, normalized with DMSO control, geometric mean for multiple data points, read-out: EC50 (24 h); for Ymin (24 h): bottom of BCL-XL degradation curve (remaining HiBiT-BCL-XL signal vs DMSO control), HT1080 cells
Description: HiBiT Based Degradation Assay
Human BCL-XL protein coding open reading frame fused with N-terminal HiBiT coding sequence (N-HiBiT-BCL-XL) was synthesized from Integrated DNA Technologies (IDT). Next, N-HiBiT-BCL-XL sequence was cloned into pLV-UBC-PGK-Puro, a lentivirus plasmid purchased from Vectorbuilder, to generate pLV-UBC-N-HiBiT-BCL-XL-PGK-puro. Lentiviral particles were generated from Lenti-X™ 293T cells (Clontech) by co-transfection of pLV-UBC-N-HiBiT-BCL-XL-PGK-puro plasmids and lentiviral packaging plasmid mix (Cellecta). HT-1080 [HT1080](ATCC CCL-121™) cells were infected with the lentivirus, and HT1080 cells stably integrated with the lentiviral vector were established by incubation with 1 μg/mL puromycin (Thermofisher). HT1080 cells expressing N-terminal HiBiT tagged BCL-XL were dispensed into 384-well plates pre-spotted with compounds at varying concentrations. Three thousand cells were seeded into each well in 40 μL of RPMI 1640 media. After 24 hours of incubation at 37° C. with 5% CO2, 30 μL of the NANO-GLO® HiBiT Lytic Detection System working solution (Promega) was added to each well and incubated at room temperature for 30 min. After incubation, luminescence was read on a PHERAstar FSX Plate Reader (BMG). BCL-XL degradation at each indicated concentration was normalized with DMSO control. The BCL-XL degradation curves were plotted using a four-parameter logistic model. For compounds displaying hook effects, curve fitting was performed using bottom point of hook curves (i.e., the point of Ymin) as bottom plateau to calculate EC50. For compounds with multiple data points, the geometric mean is presented.

T1 sequence (Q07817 whole entry): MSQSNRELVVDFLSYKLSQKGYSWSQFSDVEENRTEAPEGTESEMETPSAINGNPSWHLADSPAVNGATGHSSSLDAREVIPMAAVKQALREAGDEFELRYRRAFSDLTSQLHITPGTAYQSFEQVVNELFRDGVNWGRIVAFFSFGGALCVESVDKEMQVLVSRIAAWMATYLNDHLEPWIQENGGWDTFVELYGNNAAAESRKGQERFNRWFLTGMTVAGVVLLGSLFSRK

| Compound | DC50 | Ymin (24 h) |
| --- | --- | --- |
| Cn1nc(C2CCC(=O)NC2=O)c2ccc(NC(=O)CN3CCC4(CC3)CC(COc3cccc(-c5ccc(N6CCc7cccc(C(=O)Nc8nc9ccccc9s8)c7C6)nc5C(=O)O)c3C(F)(F)F)C4)c(F)c21 (centres unmarked) [Compound 185] | 10 to 100 nM | B (30% ≤ Ymin < 50%) |
| Cc1c(OCC2CC3(CCN(CC(=O)Nc4ccc5c(C6CCC(=O)NC6=O)nn(C)c5c4C(F)(F)F)CC3)C2)cccc1-c1ccc(N2CCc3cccc(C(=O)Nc4nc5ccccc5s4)c3C2)nc1C(=O)O (centres unmarked) [Compound 137] | 10 to 100 nM | C (50% ≤ Ymin < 70%) |
| C[C@@H]1C[C@@H](CCCOc2cccc(-c3ccc(N4CCc5cccc(C(=O)Nc6nc7ccccc7s6)c5C4)nc3C(=O)O)c2C(F)(F)F)CCN1CC(=O)Nc1ccc2c(C3CCC(=O)NC3=O)nn(C)c2c1 (some centres unmarked) [Compound 215c] | 10 to 100 nM | B (30% ≤ Ymin < 50%) |
| Cc1cc(OCCCC2CCN(CC(=O)Nc3ccc4c(C5CCC(=O)NC5=O)nn(C)c4c3)CC2)ccc1-c1ccc(N2CCc3ccnc(C(=O)Nc4nc5ccccc5s4)c3C2)nc1C(=O)O (centres unmarked) [Compound 141, 6-[8-(1,3-benzothiazol-2-ylcarbamoyl)-3,4-dihydro-1H-2,7-naphthyridin-2-yl]-3-[4-[3-[1-[2-[[3-(2,6-dioxo-3-piperidyl)-1-methyl-indazol-6-yl]amino]-2-oxo-ethyl]-4-piperidyl]propoxy]-2-methyl-phenyl]pyridine-2-carboxylic acid] | < 10 nM | A (Ymin < 30%) |
| Cn1nc(C2CCC(=O)NC2=O)c2ccc(NC(=O)CN3CCC4(CC3)CC(Oc3ccc(-c5ccc(N6CCc7cccc(C(=O)Nc8nc9ccccc9s8)c7C6)nc5C(=O)O)c(C(F)(F)F)c3)C4)c(F)c21 (centres unmarked) [Compound 189] | < 10 nM | B (30% ≤ Ymin < 50%) |
| Cc1c(OCC2CC3(CCN(CC(=O)Nc4ccc5c(C6CCC(=O)NC6=O)nn(C)c5c4C)CC3)C2)cccc1-c1ccc(N2CCc3cccc(C(=O)Nc4nc5ccccc5s4)c3C2)nc1C(=O)O (centres unmarked) [Compound 117] | 10 to 100 nM | B (30% ≤ Ymin < 50%) |
| Cc1c(OCC2CC3(CCN(CC(=O)Nc4cc5c(cc4F)c(C4CCC(=O)NC4=O)nn5C)CC3)C2)cccc1-c1ccc(N2CCc3cccc(C(=O)Nc4nc5ccccc5s4)c3C2)nc1C(=O)O (centres unmarked) [Compound 121] | 10 to 100 nM | B (30% ≤ Ymin < 50%) |
| COc1c(NC(=O)CN2CCC(CC[C@@H](C)Oc3ccc(-c4ccc(N5CCc6cccc(C(=O)Nc7nc8ccccc8s7)c6C5)nc4C(=O)O)c(C)c3)CC2)ccc2c(C3CCC(=O)NC3=O)nn(C)c12 (single isomer, unassigned) [Compound 223b] | 10 to 100 nM | A (Ymin < 30%) |
| COc1c(NC(=O)CN2CCC3(CC2)CC(Oc2ccc(-c4ccc(N5CCc6ccnc(C(=O)Nc7nc8ccccc8s7)c6C5)nc4C(=O)O)c(C)c2)C3)ccc2c(C3CCC(=O)NC3=O)nn(C)c12 (centres unmarked) [Compound 187, 6-[8-(1,3-benzothiazol-2-ylcarbamoyl)-3,4-dihydro-1H-2,7-naphthyridin-2-yl]-3-[4-[[7-[2-[[3-(2,6-dioxo-3-piperidyl)-7-methoxy-1-methyl-indazol-6-yl]amino]-2-oxo-ethyl]-7-azaspiro[3.5]nonan-2-yl]oxy]-2-methyl-phenyl]pyridine-2-carboxylic acid] | < 10 nM | A (Ymin < 30%) |
| Cc1cc(OC[C@@H]2C[C@H]2C2CCN(CC(=O)Nc3ccc4c(C5CCC(=O)NC5=O)nn(C)c4c3)CC2)ccc1-c1ccc(N2CCc3cccc(C(=O)Nc4nc5ccccc5s4)c3C2)nc1C(=O)O (single isomer, unassigned) [Compound 1003b] | < 10 nM | B (30% ≤ Ymin < 50%) |
| Cc1cc(NCCCC2CCN(CC(=O)Nc3ccc4c(C5CCC(=O)NC5=O)nn(C)c4c3)CC2)ccc1-c1ccc(N2CCc3cccc(C(=O)Nc4nc5ccccc5s4)c3C2)nc1C(=O)O (centres unmarked) [Compound 218] | < 10 nM | A (Ymin < 30%) |
| Cc1c(OCCCC2CCN(CC(=O)Nc3ccc4c(C5CCC(=O)NC5=O)nn(C)c4c3)CC2)cccc1-c1ccc(N2CCc3ccnc(C(=O)Nc4nc5ccccc5s4)c3C2)nc1C(=O)O (centres unmarked) [Compound 106, 6-(8-(benzo[d]thiazol-2-ylcarbamoyl)-3,4-dihydro-2,7-naphthyridin-2(1H)-yl)-3-(3-(3-(1-(2-((3-(2,6-dioxopiperidin-3-yl)-1-methyl-1H-indazol-6-yl)amino)-2-oxoethyl)piperidin-4-yl)propoxy)-2-methylphenyl)picolinic acid] | 10 to 100 nM | B (30% ≤ Ymin < 50%) |
| Cc1c(OCCC[C@H]2CCN(CC(=O)Nc3ccc4c(C5CCC(=O)NC5=O)nn(C)c4c3)[C@H](C)C2)cccc1-c1ccc(N2CCc3ccnc(C(=O)Nc4nc5ccccc5s4)c3C2)nc1C(=O)O (some centres unmarked) [Compound 216c] | 10 to 100 nM | B (30% ≤ Ymin < 50%) |

Continued, values first:

| DC50 | Ymin (24 h) | Compound |
| --- | --- | --- |
| 10 to 100 nM | B (30% ≤ Ymin < 50%) | C[C@H](COc1ccc(-c2ccc(N3CCc4cccc(C(=O)Nc5nc6ccccc6s5)c4C3)nc2C(=O)O)c(C(F)(F)F)c1)CC1CCN(CC(=O)Nc2ccc3c(C4CCC(=O)NC4=O)nn(C)c3c2)CC1 (single isomer, unassigned) [Compound 130b] |
| 10 to 100 nM | A (Ymin < 30%) | Cc1cc(O[C@@H](C)CCC2CCN(CC(=O)Nc3ccc4c(C5CCC(=O)NC5=O)nn(C)c4c3)CC2)ccc1-c1ccc(N2CCc3ccnc(C(=O)Nc4nc5ccccc5s4)c3C2)nc1C(=O)O (single isomer, unassigned) [Compound 133b] |
| 10 to 100 nM | B (30% ≤ Ymin < 50%) | Cc1cc(O[C@@H](C)CCC2CCN(CC(=O)Nc3ccc4c(C5CCC(=O)NC5=O)nn(C)c4n3)CC2)ccc1-c1ccc(N2CCc3cccc(C(=O)Nc4nc5ccccc5s4)c3C2)nc1C(=O)O (single isomer, unassigned) [Compound 225a] |
| 10 to 100 nM | B (30% ≤ Ymin < 50%) | Cc1c(OCC2CC3(CCN(CC(=O)Nc4ccc5c(C6CCC(=O)NC6=O)nn(C)c5c4F)CC3)C2)cccc1-c1ccc(N2CCc3cccc(C(=O)Nc4nc5ccccc5s4)c3C2)nc1C(=O)O (centres unmarked) [Compound 120] |
| < 10 nM | B (30% ≤ Ymin < 50%) | Cc1c(OC2CC3(CCN(CC(=O)Nc4ccc5c(C6CCC(=O)NC6=O)nn(C)c5c4)CC3)C2)cccc1-c1ccc(N2CCc3ccnc(C(=O)Nc4nc5ccccc5s4)c3C2)nc1C(=O)O (centres unmarked) [Compound 163, 6-[8-(1,3-benzothiazol-2-ylcarbamoyl)-3,4-dihydro-1H-2,7-naphthyridin-2-yl]-3-[3-[[7-[2-[[3-(2,6-dioxo-3-piperidyl)-1-methyl-indazol-6-yl]amino]-2-oxo-ethyl]-7-azaspiro[3.5]nonan-2-yl]oxy]-2-methyl-phenyl]pyridine-2-carboxylic acid] |
| 100 to 1000 nM | B (30% ≤ Ymin < 50%) | Cc1cc2c(C3CCC(=O)NC3=O)nn(C)c2cc1NC(=O)CN1CCC2(CC1)CC(COc1cccc(-c3ccc(N4CCc5cccc(C(=O)Nc6nc7ccccc7s6)c5C4)nc3C(=O)O)c1C)C2 (centres unmarked) [Compound 118] |
